In patent US7638140B2, “Adhesive mixture for transdermal delivery of highly plasticizing drugs” (priority 1997, dated 2009):
Structures can show the parent of a compound that is named as a salt.

Tests used:
[1] = Solubility in water
[2] = pH; format: physicochemical
[3] = free base form of the drug named as HCl salt; cited from earlier work

**Q.** Which solubility in water [1] does the source give for `C#CCN(C)[C@H](C)Cc1ccccc1` [Selegiline free base, selegiline] here?
**A.** The solubility in water was “only sparingly soluble in water”.

**Q.** Which “calculated pH” value [2] does the source give for `CCN(CC)CC` [Triethylamine] here?
**A.** Its value is “approximately 13.7”.

**Q.** And the “measured pH” value [2]?
**A.** The value was “approximately 11.7”.

**Q.** Which “pKb of the free base form” value [3] does the source give for `Clc1cccc(Cl)c1N=C1NCCN1` [clonidine-HCl] here?
**A.** Its value is 7.

**Q.** Which solubility in water [1] does the source give for `C#CCN(C)[C@H](C)Cc1ccccc1` [selegiline-HCl] here?
**A.** Its solubility in water is “readily soluble in water”.

**Q.** Which “pH of the free base form” value ([2]; free base form) does the source give for phenylpropranolol-HCl here?
**A.** The value was “approximately 13”.
